Measured values reported in the supplement of paper PMC10307832.

What was measured:
Test in all cases: relative viability (nuclei count vs DMSO), 5 days (fraction); higher = more cells survive
[1] = compound: O[C@@H](COc1cccc2ncccc12)CN1CCN([C@@H]2c3ccccc3[C@@H]3[C@H](c4ccccc42)C3(F)F)CC1 [Zosuquidar] + N=C(N)NC(=N)NCCc1ccccc1 [Phenformin] (partner 250 µM)
Procedure, shortened: (§1)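 The day after seeding in 1536-well plates, lung cancer cell lines were treated by pin tool with a single drug, or with a fixed anchor-drug dose together with five library-drug doses (not always all listed) in √10 steps. After 5 days, a combined fix-and-stain solution (final 0.05% Triton X-100, 1% formaldehyde, 1 ug/ml Hoechst) was added. Nuclei counted on 4× images gave relative viability as treated counts over vehicle counts, reported as the median of duplicate plates.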

[2] = compound: C1=CC(=CC=C1NC(=S)NNC2=C(C=C(C=C2[N+](=O)[O-])C(F)(F)F)[N+](=O)[O-])F [Kobe2602] + CS(=O)(=O)N1CCN(Cc2cc3nc(-c4cccc5[nH]ncc45)nc(N4CCOCC4)c3s2)CC1 [Pictilisib] (partner 1 µM)
Procedure, shortened: as §1

[3] = compound: C1=CC(=CC=C1NC(=S)NNC2=C(C=C(C=C2[N+](=O)[O-])C(F)(F)F)[N+](=O)[O-])F [Kobe2602] + CC(=O)Nc1cccc(-n2c(=O)n(C3CC3)c(=O)c3c(Nc4ccc(I)cc4F)n(C)c(=O)c(C)c32)c1 [Trametinib] (partner 0.02 µM)
Procedure, shortened: as §1

[4] = compound: COc1cc2nccc(Oc3ccc(NC(=O)C4(C(=O)Nc5ccc(F)cc5)CC4)cc3)c2cc1OC [Cabozantinib] + Cc1nc(NC(=O)N2CCC[C@H]2C(N)=O)sc1-c1ccnc(C(C)(C)C(F)(F)F)c1 [Alpelisib] (partner 2 µM)
Procedure, shortened: as §1

| Cell Line | relative viability ([1]; first compound 0.01 µM) | relative viability ([1]; first compound 0.03162 µM) | relative viability ([1]; first compound 0.1 µM) | relative viability ([1]; first compound 0.3162 µM) | relative viability ([1]; first compound 1 µM) | relative viability ([2]; first compound 0.2 µM) | relative viability ([2]; first compound 0.6325 µM) | relative viability ([2]; first compound 2 µM) | relative viability ([2]; first compound 6.325 µM) | relative viability ([2]; first compound 20 µM) | relative viability ([3]; first compound 0.2 µM) | relative viability ([3]; first compound 0.6325 µM) | relative viability ([3]; first compound 2 µM) | relative viability ([3]; first compound 6.325 µM) | relative viability ([3]; first compound 20 µM) | relative viability ([4]; first compound 0.02 µM) | relative viability ([4]; first compound 0.06325 µM) | relative viability ([4]; first compound 0.2 µM) | relative viability ([4]; first compound 0.6325 µM) | relative viability ([4]; first compound 2 µM) |
| --- | --- | --- | --- | --- | --- | --- | --- | --- | --- | --- | --- | --- | --- | --- | --- | --- | --- | --- | --- | --- |
| ChaGo-K-1 | 0.573 | 0.419 | 0.554 | 0.506 | 0.51 | 0.761 | 1.05 | 0.625 | 0.725 | 0.732 | 0.883 | 0.884 | 0.912 | 0.769 | 0.855 | – | – | – | – | – |
| EBC-1 | – | – | – | – | – | 0.365 | 0.556 | 0.402 | 0.378 | 0.437 | – | – | – | – | – | 0.718 | 0.931 | 0.208 | 0.185 | 0.22 |
| EKVX | 0.231 | 0.252 | 0.189 | 0.243 | 0.227 | 0.461 | 0.422 | 0.386 | 0.412 | 0.426 | 0.38 | 0.366 | 0.288 | 0.298 | 0.319 | 0.788 | 0.898 | 0.695 | 0.886 | 0.951 |
| EMC-BAC-2 | 0.523 | 0.541 | 0.517 | 0.602 | 0.537 | 0.503 | 0.6 | 0.548 | 0.569 | 0.558 | 0.822 | 0.874 | 0.898 | 0.91 | 0.807 | 0.815 | 0.804 | 0.744 | 0.739 | 0.737 |
| EPLC-272H | 0.344 | 0.288 | 0.287 | 0.241 | 0.301 | 0.321 | 0.458 | 0.294 | 0.345 | 0.374 | 0.263 | 0.288 | 0.304 | 0.278 | 0.299 | 1.02 | 0.944 | 0.727 | 0.949 | 0.847 |
| H3255 | 0.34 | 0.373 | 0.326 | 0.38 | 0.36 | 0.533 | 0.451 | 0.509 | 0.486 | 0.509 | 0.621 | 0.629 | 0.549 | 0.632 | 0.588 | 0.675 | 0.635 | – | 0.779 | 0.644 |
| HARA | 0.408 | – | 0.489 | 0.41 | 0.451 | 0.445 | 0.415 | 0.375 | 0.345 | 0.495 | 0.846 | 0.636 | 0.627 | 0.771 | 0.752 | 0.878 | 1.05 | 0.639 | 0.788 | 0.84 |
| HCC-15 | 0.44 | 0.441 | 0.436 | 0.497 | 0.504 | 0.816 | 0.848 | 0.738 | 0.78 | 0.707 | 0.34 | 0.397 | 0.362 | 0.386 | 0.387 | 0.881 | 0.933 | 0.925 | 0.905 | 0.761 |
| HCC-44 | 0.259 | 0.191 | 0.161 | 0.336 | 0.209 | 0.63 | 0.623 | 0.684 | 1.54 | 0.662 | 1.04 | 1.16 | 1.02 | 0.939 | 0.967 | 0.864 | 0.784 | 0.808 | 0.757 | 0.855 |
